Test results published in the supplement of paper PMC10307832.

Columns and labels:
Test in all cases: relative viability (nuclei count vs DMSO), 5 days (fraction); higher = more cells survive
Tipifarnib + Dasatinib = compound: Cn1cncc1[C@@](N)(c1ccc(Cl)cc1)c1ccc2c(c1)c(-c1cccc(Cl)c1)cc(=O)n2C [Tipifarnib] + Cc1nc(Nc2ncc(C(=O)Nc3c(C)cccc3Cl)s2)cc(N2CCN(CCO)CC2)n1 [Dasatinib] (partner 0.075 µM)
Summary of the method: (§1)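 Relative viability is defined as nuclei in treated wells over nuclei in vehicle wells. Duplicate plates were run and medians reported. Lung cancer cell lines in 1536-well plates were dosed by pin tool one day after seeding, with one drug or with a fixed anchor-drug dose plus five library-drug doses (not always all listed) in √10 steps, and nuclei were counted after 5 days.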

Tipifarnib + Pemetrexed = compound: Cn1cncc1[C@@](N)(c1ccc(Cl)cc1)c1ccc2c(c1)c(-c1cccc(Cl)c1)cc(=O)n2C [Tipifarnib] + Nc1nc2[nH]cc(CCc3ccc(C(=O)N[C@@H](CCC(=O)O)C(=O)O)cc3)c2c(=O)[nH]1 [Pemetrexed] (partner 0.2 µM)
Summary of the method: as §1

Tipifarnib + Palbociclib = compound: Cn1cncc1[C@@](N)(c1ccc(Cl)cc1)c1ccc2c(c1)c(-c1cccc(Cl)c1)cc(=O)n2C [Tipifarnib] + CC(=O)c1c(C)c2cnc(Nc3ccc(N4CCNCC4)cn3)nc2n(C2CCCC2)c1=O [Palbociclib] (partner 0.5 µM)
Summary of the method: as §1

Tipifarnib + Vorinostat = compound: Cn1cncc1[C@@](N)(c1ccc(Cl)cc1)c1ccc2c(c1)c(-c1cccc(Cl)c1)cc(=O)n2C [Tipifarnib] + O=C(CCCCCCC(=O)Nc1ccccc1)NO [Vorinostat] (partner 1 µM)
Summary of the method: as §1

Cell Line | relative viability (Tipifarnib + Dasatinib; first compound 0.01 µM) | relative viability (Tipifarnib + Dasatinib; first compound 0.03162 µM) | relative viability (Tipifarnib + Dasatinib; first compound 0.1 µM) | relative viability (Tipifarnib + Dasatinib; first compound 0.3162 µM) | relative viability (Tipifarnib + Dasatinib; first compound 1 µM) | relative viability (Tipifarnib + Pemetrexed; first compound 0.01 µM) | relative viability (Tipifarnib + Pemetrexed; first compound 0.03162 µM) | relative viability (Tipifarnib + Pemetrexed; first compound 0.1 µM) | relative viability (Tipifarnib + Pemetrexed; first compound 0.3162 µM) | relative viability (Tipifarnib + Pemetrexed; first compound 1 µM) | relative viability (Tipifarnib + Palbociclib; first compound 0.01 µM) | relative viability (Tipifarnib + Palbociclib; first compound 0.03162 µM) | relative viability (Tipifarnib + Palbociclib; first compound 0.1 µM) | relative viability (Tipifarnib + Palbociclib; first compound 0.3162 µM) | relative viability (Tipifarnib + Palbociclib; first compound 1 µM) | relative viability (Tipifarnib + Vorinostat; first compound 0.01 µM) | relative viability (Tipifarnib + Vorinostat; first compound 0.03162 µM) | relative viability (Tipifarnib + Vorinostat; first compound 0.1 µM) | relative viability (Tipifarnib + Vorinostat; first compound 0.3162 µM) | relative viability (Tipifarnib + Vorinostat; first compound 1 µM)
PC-3 [JPC-3] | 1.01 | 0.994 | 0.99 | 0.679 | 0.532 | 1 | 1.11 | 0.592 | 0.448 | 0.42 | 0.458 | 0.553 | 0.642 | 0.497 | 0.495 | 0.823 | 0.674 | 0.529 | 0.426 | 0.386
PC-14 | 0.261 | 0.206 | 0.191 | 0.128 | 0.093 | 0.123 | 0.154 | 0.157 | 0.146 | 0.149 | 0.42 | 0.346 | 0.226 | 0.15 | 0.163 | 0.698 | 0.324 | 0.455 | 0.236 | 0.157
RERF-LC-KJ | 0.884 | 0.778 | 0.724 | 0.535 | 0.574 | 0.474 | 0.6 | 0.46 | 0.427 | 0.362 | 1.22 | 1.12 | 0.957 | 0.813 | 0.784 | 0.652 | 0.652 | 0.544 | 0.324 | 0.224
SK-LU-1 | 0.16 | 0.152 | 0.156 | 0.14 | 0.133 | 0.961 | 0.931 | 0.723 | 0.63 | 0.5 | 0.398 | 0.353 | 0.393 | 0.357 | 0.335 | 0.771 | 0.635 | 0.492 | 0.417 | 0.471
SK-MES-1 | 0.44 | 0.341 | 0.337 | 0.18 | 0.249 | 0.975 | 0.919 | 0.924 | 0.773 | 0.648 | 0.337 | 0.3 | 0.304 | 0.245 | 0.3 | 1.14 | 0.99 | 1.05 | 0.842 | 0.57
SW 900 | 0.476 | 0.289 | 0.269 | 0.158 | 0.289 | 0.397 | 0.272 | 0.455 | 0.303 | 0.299 | 0.454 | 0.415 | 0.347 | 0.332 | 0.354 | 0.435 | 0.144 | 0.278 | 0.227 | 0.187
SW 1573 | 0.379 | 0.33 | 0.297 | 0.217 | 0.198 | 0.781 | 0.719 | 0.458 | 0.383 | 0.245 | 0.427 | 0.239 | 0.211 | 0.183 | 0.186 | 0.701 | 0.434 | 0.308 | 0.312 | 0.179
UMC-11 | 0.419 | 0.441 | 0.422 | 0.357 | 0.29 | 0.578 | 0.65 | 0.499 | 0.46 | 0.424 | 0.342 | 0.306 | 0.295 | 0.273 | 0.262 | 0.314 | 0.348 | 0.338 | 0.291 | 0.307
